Experimental data: patent US6620916B1, “Modified physiologically active proteins and medicinal compositions containing the same” (Ajinomoto Co., Inc., priority 1996, dated 2003)
Entries after “also recorded” stand apart in the source; their conditions may differ.

Columns and labels:
[1] = biological target: T1, ASGR (Mus musculus, UniProt P24721+P34927); assay: Hepatocyte binding test with 125I-labeled ligands, Scatchard analysis; conditions: mouse hepatocytes, 4° C., 2 hours
T1 construct: endogenous in cells; host or cells: primary hepatocytes from C57BL/6 mice (7W, male)
T1 sequence (P34927 1-284): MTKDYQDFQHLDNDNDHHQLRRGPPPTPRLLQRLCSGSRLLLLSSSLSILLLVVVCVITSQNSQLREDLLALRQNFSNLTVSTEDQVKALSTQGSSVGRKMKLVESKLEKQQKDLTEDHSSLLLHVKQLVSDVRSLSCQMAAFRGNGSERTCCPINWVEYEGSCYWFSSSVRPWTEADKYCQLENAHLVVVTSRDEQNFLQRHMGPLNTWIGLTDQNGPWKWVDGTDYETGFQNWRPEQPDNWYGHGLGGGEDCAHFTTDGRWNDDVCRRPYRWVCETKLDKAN
T1 sequence (P24721 1-301): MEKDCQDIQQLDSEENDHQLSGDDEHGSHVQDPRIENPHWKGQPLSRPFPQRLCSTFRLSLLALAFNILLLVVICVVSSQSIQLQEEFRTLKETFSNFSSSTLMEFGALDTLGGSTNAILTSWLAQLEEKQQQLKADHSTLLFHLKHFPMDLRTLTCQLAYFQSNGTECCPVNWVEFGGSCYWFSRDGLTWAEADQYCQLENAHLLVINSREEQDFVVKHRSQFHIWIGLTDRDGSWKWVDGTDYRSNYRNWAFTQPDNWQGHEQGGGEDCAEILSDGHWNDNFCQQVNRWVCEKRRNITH
Protocol: The test for binding of a modified product to hepatocytes was conducted using mouse-separated hepatocytes prepared by the collagenase reflux method which is a modification of the method of Berry et al. (M. N. Berry et al., J. Cell Biol., 43, 506-520 (1969)). That is, seven mice (C57BL/6, 7W, male) were refluxed with a collagenase (type I, supplied by Wako Pure Chemical Industries, Ltd.) and each liver thereof was then severed. Each liver was filtered using a cell filter. Hepatocytes were then collected through centrifugation at a low rate (50 g×1 min), and incubated for from 1 to 4 hours in a D-MEM medium containing 10% FBS (supplied by Gibco, containing 100 U/ml of penicillin, 100 μg/ml of streptomycin and 50 μg/ml of gentamicin) using a tissue culture dish of 150 mm (supplied by Iwaki Garasu K.K.). […]
The hepatocyte binding test was conducted by the method of Chang et al. (T. Chang et al., BBA 942. 57-64 (1988)). […] Thereafter, the radioactivity by the non-specific binding was subtracted from the radioactivity of 0.8 ml of 1 ml of the 0.1 N NaOH solution containing 0.5% SDS, and the radioactivity of the total amount thereof was calculated from the above-obtained value. The thus-calculated value was defined as an amount of a bound fraction. […] The total protein amount of the cells was calculated by the Lorry method using 0.1 ml of the solution. […]

[2] = system: mouse-separated hepatocytes; assay: Uptake of 125I-labeled modified product into hepatocytes; format: cell-based; conditions: 24 nM, 37° C.
Protocol: The test for uptake into hepatocytes was also conducted according to the method of Chang et al (T. Chang et al., BBA 942. 57-64 (1988)). The cells which were approximately in the almost confluent state were washed once with a D-MEM medium (pH 7.4) containing 0.1% BSA and 10 mM Hepes, and the buffer was added thereto. The mixture was incubated in 5% CO2 at 37° C. for 30 minutes. […] On the other hand, the non-specific uptake was conducted by adding 100 mM N-acetylgalactosamine in each of the labeled solutions. Each plate incubated was moved on an ice bath after the reaction. A part of the medium was sampled, and a D-PBS solution (free from Ca^2+ and Mg^2+) containing 20 mM EGTA cooled at 4° C. was added thereto. The mixture was allowed to stand for 5 minutes. This washing was repeated twice. Further, the plate was washed once with a D-PBS solution (free from Ca^2+ and Mg^2+) cooled, and then allowed to stand at −20° C. for 30 minutes or more. The radioactivity by the non-specific binding was subtracted from the radioactivity of 0.8 ml of 1 ml of the 0.1 N NaOH solution containing 0.5% SDS in each well, and the radioactivity of the total amount thereof was calculated from the above-obtained value. The thus-calculated value was defined as an amount of an uptake fraction. Meanwhile, a value obtained by subtracting the radioactivity by the non-specific degradation from the radioactivity of the total trichloroacetic acid-soluble fraction in the medium was defined as an amount of a degradation fraction. The uptake tast was conducted with each point of n=3. The total protein amount of the cells was calculated by the Lorry method with respect to 0.1 ml of the solution.

Molecule | dissociation constant (Kd1) of high affinity site [1] | time to saturation of uptake [2] | degradation component ([2]; 0-4 hours) | uptake component in hepatocytes ([2]; 0-4 hours)
CC(=O)NC1C(OCCOCCOCCNC(=O)CCC(NC(=O)CCC(NC(=O)CCCCCNC(=O)C(Cc2ccc(O)cc2)NC(=O)OC(C)(C)C)C(=O)NCCOCCOCCOC2OC(CO)C(O)C(O)C2NC(C)=O)C(=O)NCCOCCOCCOC2OC(CO)C(O)C(O)C2NC(C)=O)OC(CO)C(O)C1O (centres unmarked) [(GalNAc)3-Tyr-Boc] | in the order level of multi-ten nM; also recorded: lower than that of (Gal)3-Tyr-Boc | – | – | –
CC(C)(C)OC(=O)NC(Cc1ccc(O)cc1)C(=O)NCCCCCC(=O)NC(CCC(=O)NC(CCC(=O)NCCOCCOCCOC1OC(CO)C(O)C(O)C1O)C(=O)NCCOCCOCCOC1OC(CO)C(O)C(O)C1O)C(=O)NCCOCCOCCOC1OC(CO)C(O)C(O)C1O (centres unmarked) [(Gal)3-Tyr-Boc] | in the order level of multi-ten nM | – | – | –
ASOR: asialoorosomucoid produced from human orosomucoid, natural ligand of ASGR | – | 1 h | gradually increased with the lapse of time | observed after 30 minutes of the incubation
